Values of other authors in patent US20050176010A1, “Regulation of human transient receptor potential channel” (Bayer HealthCare AG, priority 2002, published 2005).

Tests used:
cold receptors [1] = conditions: animals; Lindstrom and Mazieres 1991, Mazieres et al. 1998
mouse TRPM8 = mouse TRPM8 (Mus musculus, UniProt Q8R4D5); conditions: Peier et al., Cell 2002
cold receptors [2] = conditions: all tested patients; Geirsson, J. Urol. 1993
[3] = target: cold- and menthol-sensitive receptor (CMR1) (Rattus norvegicus, UniProt Q8R455); conditions: McKemy et al., Nature 2002
Chain of cold- and menthol-sensitive receptor (CMR1) (Q8R455 whole entry): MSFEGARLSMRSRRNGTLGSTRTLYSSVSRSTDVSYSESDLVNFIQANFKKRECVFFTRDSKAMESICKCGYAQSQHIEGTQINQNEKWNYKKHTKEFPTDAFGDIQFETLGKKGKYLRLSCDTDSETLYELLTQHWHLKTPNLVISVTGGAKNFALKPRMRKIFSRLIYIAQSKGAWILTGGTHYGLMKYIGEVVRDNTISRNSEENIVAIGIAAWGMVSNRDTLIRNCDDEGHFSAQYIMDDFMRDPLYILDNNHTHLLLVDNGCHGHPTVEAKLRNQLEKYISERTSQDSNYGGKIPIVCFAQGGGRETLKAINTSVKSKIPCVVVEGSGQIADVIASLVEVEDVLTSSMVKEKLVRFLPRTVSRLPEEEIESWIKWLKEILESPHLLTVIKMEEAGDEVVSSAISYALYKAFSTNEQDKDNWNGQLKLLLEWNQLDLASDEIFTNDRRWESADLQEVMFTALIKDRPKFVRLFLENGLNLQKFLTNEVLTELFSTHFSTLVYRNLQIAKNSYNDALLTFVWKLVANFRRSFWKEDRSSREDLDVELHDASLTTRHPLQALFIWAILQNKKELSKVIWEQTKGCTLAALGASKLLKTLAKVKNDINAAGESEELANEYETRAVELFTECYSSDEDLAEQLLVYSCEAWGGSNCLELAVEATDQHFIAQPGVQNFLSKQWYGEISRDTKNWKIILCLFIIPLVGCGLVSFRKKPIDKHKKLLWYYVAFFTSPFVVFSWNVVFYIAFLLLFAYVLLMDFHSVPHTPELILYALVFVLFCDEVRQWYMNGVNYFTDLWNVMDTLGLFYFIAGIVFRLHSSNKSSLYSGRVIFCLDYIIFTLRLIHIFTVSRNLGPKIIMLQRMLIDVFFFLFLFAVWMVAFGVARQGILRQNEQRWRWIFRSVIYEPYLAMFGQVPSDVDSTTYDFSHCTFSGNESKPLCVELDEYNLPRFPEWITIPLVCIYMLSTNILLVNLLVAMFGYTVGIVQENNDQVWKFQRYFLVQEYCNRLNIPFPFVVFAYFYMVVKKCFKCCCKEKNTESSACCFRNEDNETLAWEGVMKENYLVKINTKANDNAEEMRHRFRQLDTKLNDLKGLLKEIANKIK

Chain of mouse TRPM8 (Q8R4D5 whole entry): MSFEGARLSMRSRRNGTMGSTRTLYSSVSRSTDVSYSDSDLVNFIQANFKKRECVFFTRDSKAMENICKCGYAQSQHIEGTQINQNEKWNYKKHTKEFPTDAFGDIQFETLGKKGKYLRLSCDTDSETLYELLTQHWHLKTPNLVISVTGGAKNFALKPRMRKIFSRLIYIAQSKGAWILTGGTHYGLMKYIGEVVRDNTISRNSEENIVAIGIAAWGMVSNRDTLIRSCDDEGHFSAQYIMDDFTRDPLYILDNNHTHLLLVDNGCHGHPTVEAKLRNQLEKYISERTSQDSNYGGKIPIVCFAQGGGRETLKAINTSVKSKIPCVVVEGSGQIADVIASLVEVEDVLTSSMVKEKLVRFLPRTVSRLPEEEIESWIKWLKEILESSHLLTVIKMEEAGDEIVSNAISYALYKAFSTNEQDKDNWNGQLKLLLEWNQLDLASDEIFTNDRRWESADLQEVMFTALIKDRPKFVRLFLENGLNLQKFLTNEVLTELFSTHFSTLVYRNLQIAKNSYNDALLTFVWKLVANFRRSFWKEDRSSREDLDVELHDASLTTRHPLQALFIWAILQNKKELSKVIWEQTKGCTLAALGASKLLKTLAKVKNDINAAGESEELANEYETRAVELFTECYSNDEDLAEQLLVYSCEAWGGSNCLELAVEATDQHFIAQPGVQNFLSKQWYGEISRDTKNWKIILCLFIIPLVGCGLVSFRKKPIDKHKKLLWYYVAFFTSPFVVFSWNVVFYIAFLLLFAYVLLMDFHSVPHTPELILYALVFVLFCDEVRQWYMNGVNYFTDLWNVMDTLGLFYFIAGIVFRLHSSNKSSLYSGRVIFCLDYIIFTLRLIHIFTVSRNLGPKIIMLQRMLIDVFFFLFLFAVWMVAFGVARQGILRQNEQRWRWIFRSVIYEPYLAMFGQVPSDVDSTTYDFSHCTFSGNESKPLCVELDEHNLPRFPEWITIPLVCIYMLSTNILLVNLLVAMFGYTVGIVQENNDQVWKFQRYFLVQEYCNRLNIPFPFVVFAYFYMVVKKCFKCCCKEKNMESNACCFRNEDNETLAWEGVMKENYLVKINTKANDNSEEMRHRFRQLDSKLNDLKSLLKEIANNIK

Question: Which “temperature response curve of the bladder cooling reflex” value (cold receptors [1]) does the source give for `CC1CCC(C(C)C)C(O)C1` (stereo not shown) [menthol] here?
Answer: shifts the temperature response curve of the bladder cooling reflex towards higher temperatures

Question: And the “gating of the ion channel” value (mouse TRPM8)?
Answer: gated by cold stimuli and menthol

Question: What about the “threshold temperature of the cooling reflex” value (cold receptors [2]) of the same molecule?
Answer: shift of the threshold temperature of the cooling reflex towards a higher value

Question: What about the “activation of the channel receptor CMR1” value [3] of the same molecule?
Answer: activated
